Laboratory results: BindingDB's records for patent US11401286 (Tetra Discovery Partners, LLC, 2022)

Legend:
[1] = biological target: Isoform 7 of cAMP-specific 3',5'-cyclic phosphodiesterase 4D (Human, UniProt Q08499); test: Kinetic Assay
[2] = biological target: cAMP-specific 3',5'-cyclic phosphodiesterase 4B [S133D] (Human, UniProt Q07343, S133D); test: Kinetic Assay
Chain of cAMP-specific 3',5'-cyclic phosphodiesterase 4B [S133D] (Q07343 whole entry S133D): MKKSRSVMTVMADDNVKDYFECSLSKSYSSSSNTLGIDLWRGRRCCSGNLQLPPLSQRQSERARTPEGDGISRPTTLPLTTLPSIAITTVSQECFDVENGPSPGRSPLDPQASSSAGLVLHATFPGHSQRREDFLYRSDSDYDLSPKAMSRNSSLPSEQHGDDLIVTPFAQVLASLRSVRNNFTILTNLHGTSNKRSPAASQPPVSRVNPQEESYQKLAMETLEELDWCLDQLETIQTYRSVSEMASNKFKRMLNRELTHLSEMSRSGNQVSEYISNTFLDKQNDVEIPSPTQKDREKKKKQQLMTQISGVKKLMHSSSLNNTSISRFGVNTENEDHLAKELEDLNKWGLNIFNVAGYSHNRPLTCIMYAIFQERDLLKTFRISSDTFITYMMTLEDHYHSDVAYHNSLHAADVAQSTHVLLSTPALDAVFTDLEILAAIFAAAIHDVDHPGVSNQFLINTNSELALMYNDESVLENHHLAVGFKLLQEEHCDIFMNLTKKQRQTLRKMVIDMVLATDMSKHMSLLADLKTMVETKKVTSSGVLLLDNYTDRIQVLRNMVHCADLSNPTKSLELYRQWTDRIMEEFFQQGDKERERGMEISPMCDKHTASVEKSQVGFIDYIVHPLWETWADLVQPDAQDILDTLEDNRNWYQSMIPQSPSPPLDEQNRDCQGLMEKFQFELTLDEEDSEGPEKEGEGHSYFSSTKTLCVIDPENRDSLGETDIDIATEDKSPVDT

Chain of Isoform 7 of cAMP-specific 3',5'-cyclic phosphodiesterase 4D (Q08499 as listed by the source): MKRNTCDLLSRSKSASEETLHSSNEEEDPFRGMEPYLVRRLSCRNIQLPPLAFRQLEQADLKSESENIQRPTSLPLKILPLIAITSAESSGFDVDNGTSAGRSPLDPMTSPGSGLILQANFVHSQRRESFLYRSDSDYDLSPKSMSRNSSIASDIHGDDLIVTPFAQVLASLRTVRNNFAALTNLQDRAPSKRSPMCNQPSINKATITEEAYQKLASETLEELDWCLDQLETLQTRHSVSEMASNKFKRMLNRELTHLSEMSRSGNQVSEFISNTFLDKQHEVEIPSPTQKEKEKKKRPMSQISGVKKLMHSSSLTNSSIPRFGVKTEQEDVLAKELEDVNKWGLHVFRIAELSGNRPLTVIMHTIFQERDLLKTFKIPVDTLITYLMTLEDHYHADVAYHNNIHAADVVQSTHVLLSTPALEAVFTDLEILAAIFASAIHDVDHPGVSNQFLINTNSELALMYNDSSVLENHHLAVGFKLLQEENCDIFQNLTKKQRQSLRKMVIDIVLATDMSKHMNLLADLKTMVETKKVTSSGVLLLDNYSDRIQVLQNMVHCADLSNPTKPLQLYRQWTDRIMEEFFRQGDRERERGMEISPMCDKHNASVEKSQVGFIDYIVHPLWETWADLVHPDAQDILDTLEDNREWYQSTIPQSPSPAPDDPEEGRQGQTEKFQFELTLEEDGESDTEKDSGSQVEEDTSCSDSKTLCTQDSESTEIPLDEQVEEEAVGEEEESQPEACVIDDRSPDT

| SMILES | IC50 [1] [nM] | IC50 [2] [nM] |
| --- | --- | --- |
| OCCc1ccc(Nc2cc(-c3cccc(Cl)c3)nc3c2CCC3)cn1 [US11401286, Example 90] | > 1000 | > 1000 |
| CCc1c(C)nc(-c2ccc(Cl)s2)nc1Nc1ccc(Cn2nccn2)cc1 [US11401286, Example 300] |  | < 1000 |
| NC(=O)Cc1ccc(Nc2cc(C3CCCC3)nc3c2CCC3)cc1 [US11401286, Example 247] | > 1000 | < 1000 |
| N#CC1CCC(c2cc(Nc3ccc(CC(N)=O)cc3)c3c(n2)CCC3)C1 (centres undefined) [US11401286, Example 138] | > 1000 | < 1000 |
| Cc1nc(Nc2ccc(CC(=O)O)cc2)nc(-c2ccc(Cl)s2)n1 [US11401286, Example 22] | > 1000 | > 1000 |
